Converted amounts (≈) assume the structure as drawn. The source made the active and inactive calls. The calls are words filed in the database; no cut-off is given here.
Assays:
Bacillus subtilis [1] = assay: Antibacterial activity against Bacillus subtilis assessed as inhibition of RNA synthesis at 2 mg/L after 50 mins by [3H]-uridine incorporation assay; type: functional
Bacillus subtilis [2] = assay: Antibacterial activity against Bacillus subtilis assessed as inhibition of plasma membrane lipids synthesis at 2 mg/L after 50 mins by [3H]-sodium acetate incorporation assay; type: functional
Bacillus subtilis [3] = assay: Antibacterial activity against Bacillus subtilis assessed as inhibition of protein synthesis at 2 mg/L after 50 mins by [35S]-methionine incorporation assay; type: functional
Bacillus subtilis [4] = assay: Antibacterial activity against Bacillus subtilis assessed as inhibition of peptidoglycan synthesis at 2 mg/L after 50 mins by [3H]-N-acetylglucosamine incorporation assay; type: functional
Bacillus subtilis [5] = assay: Antibacterial activity against Bacillus subtilis assessed as inhibition of DNA synthesis at 2 mg/L after 50 mins by [3H]thymidine incorporation assay; type: functional
Staphylococcus aureus [6] = assay: Antibacterial activity against methicillin-resistant Staphylococcus aureus 4591 clinical isolates after 24 hrs by microdilution method; type: functional; details: Staphylococcus aureus, 4591, 24 h
Pseudomonas aeruginosa [7] = assay: Antibacterial activity against Pseudomonas aeruginosa CCM 3955 after 24 hrs by microdilution method; type: functional; details: CCM 3955, 24 h
Bacillus subtilis [8] = assay: Antibacterial activity against Bacillus subtilis after 24 hrs by microdilution method; type: functional
[9] = test system: Staphylococcus epidermidis; assay: Antibacterial activity against Staphylococcus epidermidis 8700/B after 24 hrs by microdilution method; type: functional
[10] = test system: Stenotrophomonas maltophilia; assay: Antibacterial activity against Stenotrophomonas maltophilia S2-23 after 24 hrs by microdilution method; type: functional; details: S2-23, 24 h
Salmonella enteritidis = assay: Antibacterial activity against Salmonella enteritidis S2-25 after 24 hrs by microdilution method; type: functional, Salmonella enterica subsp. enterica serovar Enteritidis; details: Salmonella enterica, S2-25, 24 h
Enterococcus faecalis = assay: Antibacterial activity against Enterococcus faecalis CCM 4224 after 24 hrs by microdilution method; type: functional; details: CCM 4224, 24 h
[11] = test system: Staphylococcus haemolyticus; assay: Antibacterial activity against fluoroquinolne-resistant Staphylococcus haemolyticus 16568 after 24 hrs by microdilution method; type: functional; details: Staphylococcus haemolyticus, 16568, 24 h
Enterococcus faecium = assay: Antibacterial activity against vancomycin-resistant Enterococcus faecium 419/ana clinical isolates after 24 hrs by microdilution method; type: functional
Escherichia coli [12] = assay: Antibacterial activity against Escherichia coli 16702 after 24 hrs by microdilution method; type: functional; details: Escherichia coli, 16702, 24 h
Staphylococcus aureus [13] = assay: Antibacterial activity against Staphylococcus aureus CCM 4223 after 24 hrs by microdilution method; type: functional; details: CCM 4223, 24 h
Acinetobacter baumannii = assay: Antibacterial activity against Acinetobacter baumannii A3-08 after 24 hrs by microdilution method; type: functional; details: A3-08, 24 h
Streptococcus agalactiae = assay: Antibacterial activity against Streptococcus agalactiae after 24 hrs by microdilution method; type: functional
Escherichia coli [14] = assay: Antibacterial activity against Escherichia coli CCM 3954 after 24 hrs by microdilution method; type: functional; details: CCM 3954, 24 h
Burkholderia multivorans = assay: Antibacterial activity against Burkholderia multivorans after 24 hrs by microdilution method; type: functional
Pseudomonas aeruginosa [15] = assay: Antibacterial activity against Pseudomonas aeruginosa 16575 after 24 hrs by microdilution method; type: functional; details: Pseudomonas aeruginosa, 16575, 24 h

Compound	MIC (Staphylococcus aureus [6]) [µg/mL]	MIC (Pseudomonas aeruginosa [7]) [µg/mL]	MIC (Bacillus subtilis [8]) [µg/mL]	MIC [9] [µg/mL]	MIC [10] [µg/mL]	MIC (Salmonella enteritidis) [µg/mL]	MIC (Enterococcus faecalis) [µg/mL]	MIC [11] [µg/mL]	MIC (Enterococcus faecium) [µg/mL]	MIC (Escherichia coli [12]) [µg/mL]	MIC (Staphylococcus aureus [13]) [µg/mL]	MIC (Acinetobacter baumannii) [µg/mL]	MIC (Streptococcus agalactiae) [µg/mL]	MIC (Escherichia coli [14]) [µg/mL]	MIC (Burkholderia multivorans) [µg/mL]	MIC (Pseudomonas aeruginosa [15]) [µg/mL]	further results
CO[C@H]1/C=C/O[C@@]2(C)Oc3c(C)c(O)c4c(O)c(c(/C=N/N5CCN(C)CC5)c(O)c4c3C2=O)NC(=O)/C(C)=C\C=C\[C@H](C)[C@H](O)[C@@H](C)[C@@H](O)[C@@H](C)[C@H](OC(C)=O)[C@@H]1C	–	–	–	–	–	–	–	–	–	–	–	–	–	–	–	–	inhibition (Bacillus subtilis [1]): Active; inhibition (Bacillus subtilis [2]): Active; inhibition (Bacillus subtilis [3]): Active; inhibition (Bacillus subtilis [4]): Active; inhibition (Bacillus subtilis [5]): Active
CCCCCCCCCCCCCCCCOP(=O)(CCN(CCCN)CCCN)OC[C@H]1O[C@@H](n2ccc(=O)[nH]c2=O)[C@H](O)[C@@H]1O (some centres not stated)	25 (≈ 36.2 µM)	6.25 (≈ 9.06 µM)	0.78 (≈ 1.13 µM)	3.13 (≈ 4.54 µM)	3.13 (≈ 4.54 µM)	3.13 (≈ 4.54 µM)	50 (≈ 72.5 µM)	3.13 (≈ 4.54 µM)	25 (≈ 36.2 µM)	3.13 (≈ 4.54 µM)	12.5 (≈ 18.1 µM)	3.13 (≈ 4.54 µM)	3.13 (≈ 4.54 µM)	3.13 (≈ 4.54 µM)	50 (≈ 72.5 µM)	3.13 (≈ 4.54 µM)	–
CCCCCCCCCCCCCCCOP(=O)(CCN1C[C@@H](O)[C@@H](N)C1)OC[C@H]1O[C@@H](n2ccc(=O)[nH]c2=O)[C@H](O)[C@@H]1O (some centres not stated)	25 (≈ 38.7 µM)	25 (≈ 38.7 µM)	6.25 (≈ 9.66 µM)	6.25 (≈ 9.66 µM)	6.25 (≈ 9.66 µM)	6.25 (≈ 9.66 µM)	12.5 (≈ 19.3 µM)	12.5 (≈ 19.3 µM)	50 (≈ 77.3 µM)	6.25 (≈ 9.66 µM)	12.5 (≈ 19.3 µM)	6.25 (≈ 9.66 µM)	3.13 (≈ 4.84 µM)	6.25 (≈ 9.66 µM)	> 200	12.5 (≈ 19.3 µM)	–
CCCCCCCCCCCCCCCCOP(=O)(CCN(CCCNC(=N)N)CCCNC(=N)N)OC[C@H]1O[C@@H](n2ccc(=O)[nH]c2=O)[C@H](O)[C@@H]1O (some centres not stated)	3.13 (≈ 4.04 µM)	3.13 (≈ 4.04 µM)	0.78 (≈ 1.01 µM)	1.56 (≈ 2.02 µM)	1.56 (≈ 2.02 µM)	1.56 (≈ 2.02 µM)	6.25 (≈ 8.08 µM)	1.56 (≈ 2.02 µM)	25 (≈ 32.3 µM)	1.56 (≈ 2.02 µM)	3.13 (≈ 4.04 µM)	3.13 (≈ 4.04 µM)	1.56 (≈ 2.02 µM)	1.56 (≈ 2.02 µM)	50 (≈ 64.6 µM)	3.13 (≈ 4.04 µM)	–
CCCCCCCCCCCCCCOP(=O)(CCN(CCN)CCN)OC[C@H]1O[C@@H](n2ccc(=O)[nH]c2=O)[C@H](O)[C@@H]1O (some centres not stated)	12.5 (≈ 19.7 µM)	3.13 (≈ 4.94 µM)	6.25 (≈ 9.86 µM)	3.13 (≈ 4.94 µM)	6.25 (≈ 9.86 µM)	12.5 (≈ 19.7 µM)	100 (≈ 158 µM)	3.13 (≈ 4.94 µM)	100 (≈ 158 µM)	6.25 (≈ 9.86 µM)	25 (≈ 39.4 µM)	25 (≈ 39.4 µM)	6.25 (≈ 9.86 µM)	12.5 (≈ 19.7 µM)	12.5 (≈ 19.7 µM)	6.25 (≈ 9.86 µM)	–
CCCCCCCCCCCCCCCOP(=O)(CCN(CCNC(=N)N)CCNC(=N)N)OC[C@H]1O[C@@H](n2ccc(=O)[nH]c2=O)[C@H](O)[C@@H]1O (some centres not stated)	6.25 (≈ 8.54 µM)	6.25 (≈ 8.54 µM)	3.13 (≈ 4.28 µM)	3.13 (≈ 4.28 µM)	3.13 (≈ 4.28 µM)	3.13 (≈ 4.28 µM)	25 (≈ 34.2 µM)	6.25 (≈ 8.54 µM)	50 (≈ 68.3 µM)	3.13 (≈ 4.28 µM)	6.25 (≈ 8.54 µM)	6.25 (≈ 8.54 µM)	3.13 (≈ 4.28 µM)	3.13 (≈ 4.28 µM)	12.5 (≈ 17.1 µM)	6.25 (≈ 8.54 µM)	–
CCCCCCCCCCCCCCOP(=O)(CCN1CCC(N)C1)OC[C@H]1O[C@@H](n2ccc(=O)[nH]c2=O)[C@H](O)[C@@H]1O (some centres not stated)	25 (≈ 40.5 µM)	3.13 (≈ 5.08 µM)	1.56 (≈ 2.53 µM)	3.13 (≈ 5.08 µM)	12.5 (≈ 20.3 µM)	6.25 (≈ 10.1 µM)	6.25 (≈ 10.1 µM)	6.25 (≈ 10.1 µM)	50 (≈ 81.1 µM)	3.13 (≈ 5.08 µM)	12.5 (≈ 20.3 µM)	6.25 (≈ 10.1 µM)	3.13 (≈ 5.08 µM)	3.13 (≈ 5.08 µM)	50 (≈ 81.1 µM)	3.13 (≈ 5.08 µM)	–
CCCCCCCCCCCCCCCCOP(=O)(CCN(CCN)CCN)OC[C@H]1O[C@@H](n2ccc(=O)[nH]c2=O)[C@H](O)[C@@H]1O (some centres not stated)	6.25 (≈ 9.44 µM)	3.13 (≈ 4.73 µM)	1.56 (≈ 2.36 µM)	3.13 (≈ 4.73 µM)	1.56 (≈ 2.36 µM)	3.13 (≈ 4.73 µM)	12.5 (≈ 18.9 µM)	3.13 (≈ 4.73 µM)	50 (≈ 75.5 µM)	3.13 (≈ 4.73 µM)	6.25 (≈ 9.44 µM)	6.25 (≈ 9.44 µM)	1.56 (≈ 2.36 µM)	3.13 (≈ 4.73 µM)	25 (≈ 37.8 µM)	3.13 (≈ 4.73 µM)	–
